Test results reported in patent publication US20240009191A1, “METHOD AND COMPOSITION FOR THE TREATMENT OF DISEASE” (DIMERIX BIOSCIENCE PTY LTD, priority 2019, published 2024).

Experiments:
AT1R-CXCR2 heteromer = target: T1, AT1R-CXCR2 heteromer (Homo sapiens, UniProt P25025+P30556); experiment: BRET trafficking of CXCR2/Rluc8 to Venus/Kras or Venus/Rab markers, presence of HA-AT1R; type: cell-based
T1 sequence (P25025 1-360): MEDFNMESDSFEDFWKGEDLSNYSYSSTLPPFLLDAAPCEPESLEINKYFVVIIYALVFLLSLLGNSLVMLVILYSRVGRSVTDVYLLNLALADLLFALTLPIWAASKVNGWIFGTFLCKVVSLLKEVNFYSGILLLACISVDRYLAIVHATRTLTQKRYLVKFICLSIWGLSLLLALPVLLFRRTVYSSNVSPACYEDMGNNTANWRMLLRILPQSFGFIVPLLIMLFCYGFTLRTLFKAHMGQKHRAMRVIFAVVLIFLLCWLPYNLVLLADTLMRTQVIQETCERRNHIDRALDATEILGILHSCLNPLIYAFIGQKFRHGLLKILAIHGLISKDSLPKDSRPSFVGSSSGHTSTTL
T1 sequence (P30556 1-359): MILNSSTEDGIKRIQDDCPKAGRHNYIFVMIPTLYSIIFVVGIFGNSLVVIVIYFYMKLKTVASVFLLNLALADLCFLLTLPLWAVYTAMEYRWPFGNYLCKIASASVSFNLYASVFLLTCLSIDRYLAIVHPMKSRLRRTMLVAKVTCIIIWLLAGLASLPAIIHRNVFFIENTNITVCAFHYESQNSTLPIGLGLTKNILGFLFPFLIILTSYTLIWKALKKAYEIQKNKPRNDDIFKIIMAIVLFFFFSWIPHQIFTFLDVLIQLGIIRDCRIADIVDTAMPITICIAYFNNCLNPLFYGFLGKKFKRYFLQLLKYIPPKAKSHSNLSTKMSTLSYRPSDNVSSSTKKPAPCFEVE
Description: (§1) HEK293FT cells were seeded in 6-well plates at a density of approximately 700,000 cells/well and maintained at 37° C., 5% CO2 in Complete Media (DMEM containing 0.3 mg/ml glutamine, 100 IU/ml penicillin and 100 μg/ml streptomycin (Gibco/Thermo Fisher)) supplemented with 10% fetal calf serum (FCS; Bovogen). Transient transfections were carried out 24 h after seeding using FuGene6™ (Promega) according to manufacturer instructions. 24 h post-transfection, cells were washed with PBS, detached using 0.05% trypsin/0.53 mM EDTA, resuspended in HEPES-buffered phenol red free Complete Media containing 5% FCS and added to a poly-L-lysine-coated white 96-well microplate (Greiner Bio-One). 48 h post-transfection, bioluminescence resonance energy transfer (BRET) assays were carried out following pre-incubation of cells with EnduRen™ (Promega) at a final concentration of 30 μM, at 37° C., 5% CO2 for 2 h. BRET measurements were taken at 37° C. using the LUMlstar™ or CLARIOstar™ (BMG Labtech). Filtered light emissions were measured for 1 s in each of the ‘donor wavelength window’ (460-490 nm for LUMlstar™ or 410-490 nm for CLARIOstar™) and ‘acceptor wavelength window’ (520-550 nm for LUMlstar™ or 520-620 nm for CLARIOstar™).
The BRET signal observed between interacting proteins is normalized by subtracting the background BRET ratio. This can be done in one of two ways (see Pfleger et al. (2006) Cell Signal 18:1664-1670; Pfleger et al. (2006) Nat Protoc 1:336-344): 1) the ratio of the 520-550 nm or 520-620 nm emission over the 460-490 nm or 410-490 nm emission for a cell sample containing only the donor construct is subtracted from the same ratio for a sample containing the interacting acceptor and donor fusion proteins; 2) the ratio of the 520-550 nm or 520-620 nm emission over the 460-490 nm or 410-490 nm emission for a cell sample treated with vehicle is subtracted from the same ratio for a second aliquot of the same cell sample treated with ligand. In the following examples, the second calculation will be used and the signal is described as ligand-induced BRET′. Furthermore, for data shown in FIGS. 4 to 20, all data points in a given set are corrected relative to the final data point prior to agonist treatment, which is fixed to zero. In keys on FIGS. 7 to 20, “>” means “followed by after 50 minutes”, with agonists added at time zero on the x-axes.
The Receptor-Heteromer Investigation Technology (Receptor-HIT) is an assay configuration that provides insights into receptor complexes (Ayoub et al. (2015) PLoS One 10(3):e0119803). It is also known as GPCR-HIT when assessing GPCRs. It is an assay configuration whereby one receptor (eg. CXCR2) is labelled with one component (eg. Renilla luciferase variant Rluc8) of a proximity-based reporter system (eg. BRET), the complementary component of which (eg. Venus yellow fluorescent protein) is fused to a receptor interacting partner (eg. mGsi).
Referring now to FIG. 3 (published in Tiulpakov et al (2016) Mol. Endocrinol. 30, 889-904), the proximity of Rluc8-tagged receptors to Venus-tagged Kras plasma membrane marker, or Venus-tagged Rabs specific for distinct subcellular locations, is monitored in live cells and in real-time using BRET. The Rab markers are: Venus/Rab5 (5) for early endosomes; Venus/Rab4 (4) for early endosome recycling; Venus/Rab11a (11) for recycling endosomes; Venus/Rab7 (7) for late endosomes/lysosomes; Venus/Rab9 (9) for late endosome trafficking to the trans-Golgi network; Venus/Rab1 (1) for endoplasmic reticulum trafficking to the cis-Golgi; Venus/Rab6 (6) for Golgi apparatus and trans-Golgi network; or Venus/Rab8 (8) for trans-Golgi network to plasma membrane.

CXCR2 = target: T2, CXCR2 (Homo sapiens, UniProt P25025); experiment: BRET Gi coupling, CXCR2/Rluc8 and Venus/mGsi without HA-AT1R, HEK293FT cells; type: cell-based; details: 100 nM CXCL8, 1 μM AngII, FIG. 1A
T2 sequence (P25025 1-360): T1 sequence (P25025 1-360)
Description: as §1
The BRET signal observed between interacting proteins is normalized by subtracting the background BRET ratio. […]

Angiotensin II [AngII]
proximity of CXCR2/Rluc8 to Venus/Kras (BRET) (AT1R-CXCR2 heteromer): increased proximity | proximity of CXCR2/Rluc8 to Venus/Rab1 (BRET) (AT1R-CXCR2 heteromer): barely any effect | proximity of CXCR2/Rluc8 to Venus/Rab4 (BRET) (AT1R-CXCR2 heteromer): very small increase | proximity of CXCR2/Rluc8 to Venus/Rab5 (BRET) (AT1R-CXCR2 heteromer): very small increase | proximity of CXCR2/Rluc8 to Venus/Rab6 (BRET) (AT1R-CXCR2 heteromer): small increase | proximity of CXCR2/Rluc8 to Venus/Rab7 (BRET) (AT1R-CXCR2 heteromer): barely any effect | proximity of CXCR2/Rluc8 to Venus/Rab8 (BRET) (AT1R-CXCR2 heteromer): clear increase | proximity of CXCR2/Rluc8 to Venus/Rab9 (BRET) (AT1R-CXCR2 heteromer): small increase | proximity of CXCR2/Rluc8 to Venus/Rab11a (BRET) (AT1R-CXCR2 heteromer): barely any effect | ligand-induced BRET signal, CXCR2/Rluc8 and Venus/mGsi (CXCR2): did not result in an increase
